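A five-concentration, 48-hour dose response in 96-well plates underlies each endpoint, interpolated linearly between surrounding concentrations. GI50: concentration for 50% inhibition of growth. TGI: concentration producing complete growth inhibition.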
Experiments:
Experiment in all cases: NCI anticancer screen, dose series, 48 h
IGROV1 ovarian = system: IGROV1 ovarian
SNB-19 CNS = system: SNB-19 CNS
TK-10 renal = system: TK-10 renal
SK-MEL-28 melanoma = system: SK-MEL-28 melanoma
HOP-92 NSCLC = system: HOP-92 NSCLC
RXF 393 renal = system: RXF 393 renal
RPMI-8226 leukemia = system: RPMI-8226 leukemia
HS 578T breast = system: HS 578T breast
M14 melanoma = system: M14 melanoma
UO-31 renal = system: UO-31 renal
ACHN renal = system: ACHN renal
MDA-MB-435 = system: MDA-MB-435
SN12C renal = system: SN12C renal
HCC-2998 colon = system: HCC-2998 colon
T-47D breast = system: T-47D breast

Row | Structure (SMILES) | TGI (IGROV1 ovarian) [µM] | TGI (SNB-19 CNS) [µM] | TGI (TK-10 renal) [µM] | TGI (SK-MEL-28 melanoma) [µM] | TGI (HOP-92 NSCLC) [µM] | TGI (RXF 393 renal) [µM] | TGI (RPMI-8226 leukemia) [µM] | TGI (HS 578T breast) [µM] | TGI (M14 melanoma) [µM] | TGI (UO-31 renal) [µM] | TGI (ACHN renal) [µM] | TGI (MDA-MB-435) [µM] | TGI (SN12C renal) [µM] | TGI (HCC-2998 colon) [µM] | TGI (T-47D breast) [µM] | GI50 (T-47D breast) [µM] | GI50 (RXF 393 renal) [µM]
1 | CCOC(=O)C1(C(=O)OCC)CN(CC)CN(c2ccccc2)C1 | 39.8 | > 100 | 33.1 | 38.8 | 33.3 | 31.7 | 45 | > 100 | 39.1 | 46.6 | 35.8 | 37.3 | > 100 | 28.9 | – | – | –
2 | COc1ccc2c(c1)CCc1c-2[nH]c2ccc(OC)cc12 | > 100 | > 100 | > 100 | > 100 | > 100 | – | > 100 | > 100 | > 100 | > 100 | > 100 | > 100 | > 100 | > 100 | > 100 | – | –
3 | Cc1cccc(/C=N/NC(=S)NCCc2ccccn2)n1 | > 100 | > 100 | > 100 | > 100 | > 100 | – | > 93 | > 100 | 33.6 | 64.2 | > 74.5 | > 73.7 | > 100 | > 100 | > 100 | – | –
4 | CCOC(=O)CC1c2ccc(O)cc2OC(=O)C1c1ccc([N+](=O)[O-])cc1 (stereo unspecified) | 60.5 | > 100 | 75.3 | > 100 | 63.2 | 64.4 | – | > 100 | 43.8 | – | 71.7 | 56.1 | 81.3 | 60.6 | 60 | – | –
5 | CC(=O)c1csc2c1C(=O)c1scc(C(C)=O)c1C2=O | 3.08 | 3.32 | 5.82 | 3.64 | 3.92 | 3.9 | 3.14 | 6.48 | 3.1 | 3.61 | 3.24 | 0.336 | 3.28 | – | 1.2 | – | –
6 | COc1ccc(C[N+]23C(CC[C@H]2c2ccccc2)CC[C@H]3c2ccccc2)cc1 (stereo partly specified) | 36.5 | > 100 | > 100 | > 100 | 39.5 | 35.3 | 27 | > 100 | 42.4 | > 100 | > 100 | 26.4 | > 100 | – | 61.5 | – | –
7 | O=C(O)c1ccc(NNc2cc(=O)[nH]c(=O)[nH]2)cc1 | > 100 | > 100 | > 100 | > 100 | – | > 100 | > 100 | > 100 | > 100 | > 100 | > 100 | – | > 100 | > 100 | > 100 | – | –
8 | CC1=C(Br)C(Br)=C(C)S1=O | > 100 | 63.7 | 48.5 | 41.9 | > 100 | – | 24 | > 100 | 33.8 | 39.3 | 90.9 | 30.9 | 30.6 | 34.9 | > 100 | – | –
9 | C[C@H]1[C@H](C)CC[C@]2(C)CC[C@]3(C)C(=C[C@@H](O)[C@@H]4[C@@]5(C)[C@H](O)[C@@H](O)[C@H](O)C(C)(C)[C@@H]5CC[C@]43C)[C@H]12 | > 100 | > 100 | – | – | – | > 100 | > 100 | > 100 | > 100 | > 100 | > 100 | > 100 | > 100 | – | > 100 | 18.7 | 0.361
10 | CC(=O)OC1CC2c3cccc4c3C(CC2N(C)C1=O)CN4C(=O)c1ccccc1 (stereo unspecified) | 43.8 | > 100 | > 100 | 77.1 | 34.8 | – | > 100 | – | 55.8 | 42.1 | 55.5 | 52.6 | 56.8 | 43.5 | > 100 | – | –
11 | CN1CCOC1(C)CO (stereo unspecified) | > 100 | > 100 | > 100 | – | > 100 | > 100 | > 100 | > 100 | > 100 | > 100 | > 100 | > 100 | – | – | > 100 | – | –
12 | COc1cccc(CCn2c(N)c(-c3ccccc3)c3ccc([N+](=O)[O-])cc3c2=O)c1 | 23.4 | 41 | 5.31 | 50 | 31.2 | – | 5 | 5.25 | 24.3 | 27.2 | 15 | > 67.1 | 1.53 | 24.8 | 5.6 | – | –
13 | CC12CCC(C(=O)OC1=O)C2(C)C (stereo unspecified) | > 100 | > 100 | > 100 | > 100 | – | > 100 | > 100 | > 100 | > 100 | > 100 | > 100 | > 100 | > 100 | > 100 | > 100 | – | –
14 | Clc1ccc(Cl)c(Nc2ccnc(SCc3ccccc3)n2)c1 | > 100 | > 100 | > 100 | > 100 | > 100 | 79.4 | > 100 | > 100 | > 100 | > 100 | > 100 | > 100 | > 100 | – | > 100 | – | –
15 | C=CCN1C[C@H](C)N([C@H](c2ccc(C(=O)N(CC)CCO)cc2)c2cccc(OC)c2)C[C@H]1C | > 100 | > 100 | > 100 | > 100 | > 100 | – | > 100 | > 100 | > 100 | > 100 | > 100 | > 100 | > 100 | – | > 100 | – | –
16 | COc1ccc2c(c1C)C(=O)C(O)(CC=C(C)C)O2 (stereo unspecified) | > 100 | > 100 | > 100 | > 100 | – | – | > 100 | > 100 | > 100 | > 100 | > 100 | > 100 | > 100 | > 100 | > 100 | – | –
